Assay results reported in patent publication US20110207742A1, “METHOD FOR REDUCTION, STABILIZATION AND PREVENTION OF RUPTURE OF LIPID RICH PLAQUE” (KOWA CO., LTD., priority 2004, published 2011).

Columns and labels:
Format in all cases: in vivo, rabbit
WHHL rabbits [1] = assay: Ratio of aortic plaque area in WHHL rabbits; details: Pitavastatin 0.5 mg/kg, compound 1 10 mg/kg; for Ratio of aortic plaque area (%) Mean ± S.E: plaque area/aortic intimal surface area×100, 16 weeks via drinking water, control 49.6 ± 5.0; for Inhibition ratio (%) of ratio of aortic plaque area: vs control group, 16 weeks via drinking water
From the text: (§1) A WHHL rabbit was discovered by Dr. Yoshio Watanabe, a former medical professor at Kobe University in 1973, and was established as a strain. The WHHL rabbit is a model animal which naturally develops hypercholesterolemia and arteriosclerosis. Using such WHHL rabbits, the effect of the drugs on plaque stabilization was examined according to the following method.
(§2) Male homozygous WHHL rabbits (Kitayama Labes, Nagano) were purchased from Oriental Yeast (Tokyo), and WHHL rabbits aged about 4 months were used for experiment. For control, single administration of Pitavastatin, single administration of the compound 1, combined administration of Pitavastatin and the compound 1, 8 WHHL rabbits, 7 WHHL rabbits, 3 WHHL rabbits, and 4 WHHL rabbits were used, respectively.
(§3) Pitavastatin was synthesized by Nissan Chemical Industries, Ltd. (Tokyo) and was supplied therefrom. In the case of administration of Pitavastatin, 0.5 mg/kg of Pitavastatin dissolved in 400 mL (which is an average amount of drinking water per rabbit a day) of drinking water was administered to each rabbit. In the case of administration of the compound 1, 10 mg/kg (in terms of free base) of the compound 1 dissolved in 400 mL (which is an average amount of drinking water per rabbit a day) of ion-exchange water was administered to each rabbit. One or both of the drugs were administered for 16 weeks.
The rabbit was perfused at a perfusion pressure of 120 mmH2O with physiological saline injected from a cardiac apex for about 5 minutes. Further, the rabbit was perfused with 4% paraformaldehyde in the same manner as described above to fix an aorta. The aorta was excised from the rabbit, and fat and connective tissue attached to the aorta were separated. An incision was made along the lesser curvature of the aorta, and then the greater curvature of the aorta was partially incised. The aorta was sandwiched between plastic films in such a manner that the intimal side of the aorta was observed, and a macro image was taken (CAMEDIA E-10, manufactured by Olympus Corporation). Based on the image, plaque area (that is, the area of lipid deposition) and aortic intimal surface area were analyzed by an image analyzer (Win Roof Ver. 5.0, manufactured by MITANI CORPORATION). The ratio of aortic plaque area of each of the rabbits was obtained using the formula:
plaque area/aortic intimal surface area×100
(§4) The results of TC and the ratio of aortic plaque area were expressed as average±standard error. Significance test between the control group and the drug administration groups were detected using Dunnett's test. Histopathological findings were evaluated in terms of the percentage of plaque area occupied by macrophages and the percentage of plaque area occupied by collagen.

WHHL rabbits [2] = assay: Histopathology of Azan-stained aortic arch, image analysis of plaque area occupied by macrophages and collagen; details: Azan stain, 16 weeks, Pitavastatin 0.5 mg/kg, compound 1 10 mg/kg; for percentage of plaque area occupied by collagen: control 26.5%; for percentage of plaque area occupied by macrophages: control 29.5%
From the text: In addition to the evaluation of TC, an aorta excised from each WHHL rabbit was histopathologically examined After the completion of measurement, an aortic arch of each WHHL rabbit was immersion-fixed with 4% paraformaldehyde overnight, and was then embedded in paraffin in the usual manner to prepare a paraffin section. The paraffin section was stained with Azan stain. […] FIGS. 1A to 1D are microscope photographs of Azan-stained aortic arches of the WHHL rabbits, and FIGS. 2A and 2B are graphs which show the analysis results of the images shown in FIGS. 1A to 1D. In this regard, it is to be noted that FIG. 1A is a microscope photograph of a control group to which no drug was administered, FIG. 1B is a microscope photograph of a group to which Pitavastatin was administered in single, FIG. 1C is a microscope photograph of a group to which the compound 1 was administered in single, and FIG. 1D is a microscope photograph of a group to which Pitavastatin and the compound 1 were administered in combination.
as §1, §2
as §3, with “weeks. […]” for “weeks.”
as §4

WHHL rabbits [3] = assay: Total plasma cholesterol (TC) level in WHHL rabbits after 16 weeks of administration; details: Pitavastatin 0.5 mg/kg, compound 1 10 mg/kg; for Total plasma cholesterol (mg/dL) Mean ± S.E: male homozygous WHHL rabbits, via drinking water for 16 weeks, control 646.8 ± 27.1
Protocol: For the investigation of the effect of these drugs on total plasma cholesterol (TC), one or both of the compound 1 (10 mg/kg) and Pitavastatin (0.5 mg/kg) were administered to WHHL rabbits via drinking water for 16 weeks to measure the TC of each of the WHHL rabbits.
as §1, §2, §3
In the next morning after last administration, each of the rabbits was placed in a restraining box, and the ear of the rabbit was sterilized with an alcohol. Then, about 1 mL of blood was collected from an ear vein with a syringe containing EDTA (final concentration, 0.1%). The collected blood was centrifuged at 4,200×g for 5 minutes to fractionate plasma. TC was measured using cholesterol E-test Wako (by a cholesterol oxidaseΩDAOS method).
as §4

CSc1cc(C)nc(SC)c1NC(=O)CN1CCN(CCSc2nc3ccccc3[nH]2)CC1 [Compound 1, 2-[4-[2-(benzimidazole-2-ylthio)ethyl]piperazin-1-yl]-N-[2,4-bis(methylthio)-6-methyl-3-pyridyl]acetamide]
Ratio of aortic plaque area (%) Mean ± S.E (WHHL rabbits [1]): 43.7 ± 4.1%
Inhibition ratio (%) of ratio of aortic plaque area (WHHL rabbits [1]): 11.9%
percentage of plaque area occupied by collagen (WHHL rabbits [2]): 44.8%
percentage of plaque area occupied by macrophages (WHHL rabbits [2]): 14.9%
effect on TC (in words) (WHHL rabbits [3]; WHHL rabbits, 16 weeks via drinking water): no effect on TC
Total plasma cholesterol (mg/dL) Mean ± S.E (WHHL rabbits [3]): 648.3 ± 82.2 mg/dL

O=C(O)C[C@H](O)C[C@H](O)/C=C/c1c(C2CC2)nc2ccccc2c1-c1ccc(F)cc1 [Pitavastatin]
Ratio of aortic plaque area (%) Mean ± S.E (WHHL rabbits [1]): 47.1 ± 6.6%
Inhibition ratio (%) of ratio of aortic plaque area (WHHL rabbits [1]): 5.0%
percentage of plaque area occupied by collagen (WHHL rabbits [2]): 34.7%
percentage of plaque area occupied by macrophages (WHHL rabbits [2]): 17.1%
Total plasma cholesterol (mg/dL) Mean ± S.E (WHHL rabbits [3]): 524.2 ± 35.6 mg/dL
Inhibition ratio (%) of total plasma cholesterol (WHHL rabbits [3]; vs control group, WHHL rabbits, 16 weeks via drinking water): 19%
